These results are taken from US20260374750A1, “LIGANDS SPECIFICALLY TARGETING VESICULAR GLUTAMATE TRANSPORTERS FOR SUPER-RESOLUTION IMAGING” (SORBONNE UNIVERSITÉ, priority 2021, published 2026).

Like-named read-outs stand apart in the source and are kept apart here.

The subject of data set [1] is VGLUT3 (BON VGLUT3 cells). Briefly: Confocal fluorescence labeling of BON cells expressing VGLUT3. It counts as cell-based, human (BON cells). As to conditions: for intensity of labeling in BON VGLUT3 cells relative to BON WT cells: FIG. 3, 20 minutes; for intensity of labeling in BON VGLUT3 cells relative to BON WT cells / fluorescence intensity in BON VGLUT3 cells relative to BON WT cells / labeling in cytoplasm of BON VGLUT3 cells: 37 °C; for fluorescence intensity in BON VGLUT3 cells relative to BON WT cells / labeling in cytoplasm of BON VGLUT3 cells: 1 h; for effect of LSP5 pretreatment on fluorescence intensity in BON VGLUT3 cells: pretreatment with LSP5-2157. The procedure: A “BON” cell line describes cells derived from human pancreatic carcinoma; the article by Ramet L. et al., published in J Neurosci, 2017, 37 (15), 4181-4199, describes such cells and the use thereof for the characterization of VGLUT type transporters.
(§1) The experiments are carried out with a BON cell line stably expressing VGLUT3 or a fluorescent VGLUT2 “VGLUT2-venus”. Wild non-transfected BON cells (“wild-type”, BON WT) are used as controls. The cells are cultured in F-12 Nutrient Mixture Ham medium (21765-029, Thermo Fisher Scientific) and Dulbecco's Modified Eagle's Medium High Glucose (DMEM HG, 31966021, Thermo Fisher Scientific; volume/volume), supplemented with 10% fetal calf serum (FCS, 12483012, Thermo Fisher Scientific) and 1% (volume/volume) of a mixture of streptomycin (10 mg/mL)/penicillin (10,000 U/mL) and […] an incubator at 37 °C under 5% CO2. For the transfected clones, the medium is enriched with 0.8 mg/mL Geneticin G418 sulfate (G418, 10131027, Thermo Fisher Scientific).
The cells are cultured in 25 cm^2 culture flasks. When the cells are at confluence, they are rinsed with sterile PBS 1× after aspiration of the medium, then incubated for five minutes at 37 °C with a solution of trypsin-EDTA (0.05% trypsin EDTA, 25300054, Thermo Fisher Scientific. The cell layer is then detached and the cells dissociated from each other. After addition of medium, the cell suspension is centrifuged for 5 minutes at 300 g, then the pellet is diluted 1:3 in order to be recultivated.
(§2) Two days before each experiment, after trypsinization of the cells from a culture flask, the cell suspension is seeded at 150,000 cells/well, in twelve-well plates on glass coverslips 19 mm in diameter. For observation, these coverslips are placed in a chamber allowing a hermetic fixation of the coverslip in the observation medium, Fluorobrite™ DMEM (A1896701, Thermo Fisher Scientific), a transparent medium.
(§3) Before each observation, the cells are incubated at 37 °C in the presence of fluorescent ligands, at previously determined concentrations. The effect of a pretreatment of BON cells with a specific inhibitor of VGLUTs, the substance LSP5-2157, is also performed to study the inhibitory effect of this substance on the labeling of BON cells with the fluorescent ligands of the invention.
(§4) The cells are observed in real time under an inverted confocal microscope, with a 63× objective in a room thermostated at 37 °C (Leica TCS SP5; cellular imaging platform of the Paris-Seine Institute of Biology). The studied fluorescent molecules emit in the blue, the cells are excited at 405 nm.
(§5) FIG. 2 illustrates the observation and quantification of the BON cells under a confocal microscope, and the inhibition of the fluorescent signal by a pretreatment of the cells with the specific VGLUT inhibitor, LSP5-2157. […] The images are presented in negative. D,H,L and P: Quantification of the treatment effect.
Different acquisitions of cells are carried out using a confocal microscope. […] Statistical analysis: Kruskal-Wallis test followed by Dunn's post-hoc test, NS: non-significant, *p<0.01; ***p<0.0001.
FIG. 3 illustrates the observation and quantification of BON cells using a confocal microscope. Wild-type cells (BON WT) or VGLUT3-expressing cells (BON VGLUT3) are incubated with different fluorescent ligands referenced: L8, YL151, D04, C07, C05, B09, G02, F11. After treatment with fluorescent ligands for 20 minutes at 37 °C, a fluorescent labeling is visible in BON cells. The effect of the treatment is analyzed by quantifying the fluorescence intensity in each cell type. […] Statistical analysis: Mann Whitney test, NS: non-significant, **p=0.0042; ***p<0.0001.

The nature of data set [2]: Fluorimetry: absorption and emission spectra, Stokes shift, molar absorption coefficient, quantum efficiency. It counts as physicochemical. Also on record: λmax abs / λmax em: unit not given here; key to Stokes shift: λmaxem − λmaxabs (emission peak minus absorption peak). As to conditions: for Stokes shift: λmaxem-λmaxabs; for ε (molar absorption coefficient) / φ (quantum efficiency): coumarin-343 as reference. Here is the method:
The physicochemical properties of each ligand were determined thanks to fluorimetry. For each compound, a dilution range was performed and measurements were taken at 1 mM, 316 μM, 100 μM, 31.6 μM, 10 μM, 3.16 μM and 1μ. In 96-well fluorescence microplates, the absorbance and emission spectra of the ligands could be determined at each concentration thanks to a plate spectrophotometer (Tecan). The absorbance spectra are first measured for each compound so as to determine the maximum absorption wavelength (λmaxabs). The fluorescence, or emission, spectra are then determined after excitation of each compound at its λmaxabs, thus allowing obtaining the maximum fluorescence wavelength (λmaxem). Different parameters specific to each of the compounds were determined: • The Stokes shift: it corresponds to the difference between the peak of the absorption spectrum and the peak of the fluorescence spectrum, i.e.: λmaxem-λmaxabs • The molar absorption coefficient (ε): it reflects the capacity of the solutions to absorb light and is determined by the formula ε=A/(C.I)(A: optical density at λmaxabs, C: concentration of the compound, I: constant corresponding to the length of the optical path). ε is expressed in L·cm^−1·mol^−1. • The quantum efficiency (Φ): it represents the ratio of the number of photons emitted to the number of photons absorbed by the compound, i.e. the “probability” for an excited molecule to emit a photon. It takes a value between 0 and 1, 0 corresponding to a non-fluorescent molecule and 1 meaning that there is no de-excitation. Its value is determined thanks to the following formula where Abs: optical density at λmaxabs, AUC: area under the curve of the fluorescence spectrum, n: refractive index of the medium. In this formula, “m” refers to the studied molecule, and “r” to a reference fluorophore.
[formula] • of the fluorescence spectrum, n: refractive index of the medium). In this formula, “m” refers to the studied molecule, and “r” to a reference fluorophore.
The determination of ε and Φ requires the use of a reference fluorescent molecule for which these two parameters are known. Because of its coumarin-type fluorescent pattern, therefore close to those of the studied compounds, coumarin-343 (ε=44300 L·cm−1·mol−1 and Φ=0.63 in ethanol) was used as reference fluorophore. These two parameters were recalculated in the compound dilution medium (DMSO), and were used as a reference in the calculation of ε and Φ for each ligand.
In order to study the effect of a pH variation on the fluorescence intensity of the compounds, the measurements of the absorption and emission spectra were carried out in three different dilution media: • DMSO: pure dimethyl sulfoxide • Phosphate buffer pH 7.2 (0.2 M) • Phosphate buffer pH 5.5 (0.2 M)
FIG. 1 illustrates the absorption and emission spectra of the compound referenced L8, a carboxylic acid from the quinoline family. This is an example of the study carried out on each of the studied fluorophores. The graphic values determined thanks to these spectra are the λmaxabs, the λmaxem and the Stokes shift in each medium. […] The most diluted wells are preferred to see the emission peak of the compound.
The results which are obtained graphically thanks to the excitation and emission spectra and by calculation via the properties of coumarin 343 are grouped in Table 2 below.

For a further data set, the system named is BON WT cells. In words: Confocal fluorescence labeling of wild-type BON cells. As to conditions: FIG. 2. It counts as cell-based, human. The procedure: as §1, §2, §3, §4, §5
For data set [3] the following is noted: reference fluorophore, in ethanol; cited from earlier work.
The mark [4] stands for this setting: pH 7 (phosphate buffer pH 7.2, 0.2 M).
The mark [5] stands for this setting: phosphate buffer pH 5.5 (0.2 M).

As for `Cc1cc(-c2ccc(/N=N/c3c(S(=O)(=O)O)cc4cc(S(=O)(=O)O)cc(N)c4c3O)c(C)c2)ccc1/N=N/c1c(S(=O)(=O)O)cc2cc(S(=O)(=O)O)cc(N)c2c1O` [trypan blue, reference compound], the “block of binding of novel ligands by reference inhibitor” value in data set [1] is recorded as “block the binding of novel ligands”.
As for `CCOC(=O)c1cc(C(=O)OCC)c2cc(-c3ccc(-c4ccccc4)cc3)ccc2n1` [YL151, Diethyl 6-(biphenyl-4-yl) quinoline-2,4-dicarboxylate], in data set [2] (DMSO), the λmax abs came to 360, the λmax em was 420-570, the Stokes shift was 60 and the “ε (molar absorption coefficient)” value was 25747.1 L/cm/mol. Further, the “φ (quantum efficiency)” value in data set [2] (DMSO) is given as 0.11. In addition, in data set [2] (pH 5.5), the Stokes shift was 85. Moreover, in data set [2] (setting [4]), the λmax abs is given as 365 and the λmax em is listed as 440. Further, the Stokes shift in data set [2] (pH 7) worked out at 75. In addition, in data set [2] (setting [5]), the λmax abs is 365 and the λmax em turned out to be 450. Moreover, the “intensity of labeling in BON VGLUT3 cells relative to BON WT cells” value in data set [1] was “increases significantly”.
In the case of `CCOC(=O)c1cc2cc(-n3cc(-c4ccc(-c5ccc(N)cc5)cc4)nn3)c(OC)cc2oc1=O` [C07, Ethyl 6-(4-(4′-amino-[1,1′-biphenyl]-4-yl)-1H-1,2,3-triazol-1-yl)-7-methoxy-2-oxo-2H-chromene-3-carboxylate], in data set [2] (DMSO), the λmax abs is on record as 335, the λmax em is on record as 410-430, the Stokes shift was 75 and the “ε (molar absorption coefficient)” value amounted to 64913.8 L/cm/mol. Further, the “φ (quantum efficiency)” value in data set [2] (DMSO) is recorded as 0.05. Further, in data set [2] (pH 5.5), the Stokes shift was 50. In addition, in data set [2] (setting [4]), the λmax abs amounted to 365 and the λmax em came to 400. In data set [2] (pH 7), the Stokes shift is on record as 35. In data set [2] (setting [5]), the λmax abs was 330 and the λmax em came out at 380. Further, in data set [1] (FIG. 2), the “fluorescence intensity in BON VGLUT3 cells relative to BON WT cells” value is on record as “significantly increases”, the “labeling in cytoplasm of BON VGLUT3 cells” value is given as “a punctiform labeling appears” and the “effect of LSP5 pretreatment on fluorescence intensity in BON VGLUT3 cells” value was “do not significantly differ”. In addition, in data set [1], the “intensity of labeling in BON VGLUT3 cells relative to BON WT cells” value is recorded as “increases significantly”. Besides, the “labeling in cytoplasm of BON WT cells” value in the data set with BON WT cells is “a weak and homogeneous labeling is detected”.
Consider `CCOC(=O)c1cc2cc(-n3cc(-c4ccc(-c5ccc(N)cc5)cc4)nn3)ccc2oc1=O` [B09, Ethyl-6-(4-(4′-amino-[1,1′-biphenyl]-4-yl)-1H-1,2,3-triazol-1-yl)-2-oxo-2H-chromene-3-carboxylate], for which, in data set [2] (DMSO), the λmax abs is 320, the λmax em amounted to 407, the Stokes shift was found to be 87 and the “ε (molar absorption coefficient)” value is 48740.9 L/cm/mol. Moreover, in data set [2] (DMSO), the “φ (quantum efficiency)” value stood at 0.1. Further, the Stokes shift in data set [2] (pH 5.5) is 47. For the same compound, in data set [2] (setting [4]), the λmax abs is 365 and the λmax em was found to be 412. The Stokes shift in data set [2] (pH 7) is listed as 47. In addition, in data set [2] (setting [5]), the λmax abs is reported as 365 and the λmax em worked out at 412. In data set [1] (FIG. 2), the “fluorescence intensity in BON VGLUT3 cells relative to BON WT cells” value is “significantly increases”, the “labeling in cytoplasm of BON VGLUT3 cells” value is given as “a punctiform labeling appears” and the “effect of LSP5 pretreatment on fluorescence intensity in BON VGLUT3 cells” value is “decreases the fluorescence intensity”. Also, the “intensity of labeling in BON VGLUT3 cells relative to BON WT cells” value in data set [1] is “increases significantly”. Moreover, in the data set with BON WT cells, the “labeling in cytoplasm of BON WT cells” value is “a weak and homogeneous labeling is detected”.
Consider `Nc1cc(S(=O)(=O)O)cc2cc(S(=O)(=O)O)c(/N=N/c3ccc(-c4ccc(/N=N/c5c(S(=O)(=O)O)cc6cc(S(=O)(=O)O)cc(N)c6c5O)cc4)cc3)c(O)c12` [LSP5-2157, reference compound], for which the “inhibition of fluorescent labeling by pre-incubation with VGLUT inhibitor” value in data set [1] (FIG. 2, against labeling by fluorescent ligands) was “significantly reduces the fluorescent labeling”. The “displacement of ligand binding in cell culture” value in data set [1] (reference VGLUT inhibitor) is reported as “capable of displacing the ligand binding in cell culture”.
Take `O=C(O)c1cc2cc3c4c(c2oc1=O)CCCN4CCC3` [coumarin-343]: in data set [3], the “Φ (quantum efficiency)” value is recorded as 0.63 and the “ε (molar absorption coefficient)” value is 44300 L/cm/mol.
